Assay results from ChEMBL document CHEMBL6134779, “Design of Proteolytic-Resistant Antifungal Peptides by Utilizing Minimum d-Amino Acid Ratios” (J Med Chem, 2024).
In brackets after ≈: the same amount, converted by molar mass.

Tests used:
[1] = system: Candida albicans; assay: Antifungal activity against Candida albicans CGMCC 2.2086 assessed as inhibition of fungal growth incubated for 48 hrs; assay type: functional
[2] = system: Candida tropicalis; assay: Antifungal activity against Candida tropicalis CGMCC 2.1975 assessed as inhibition of fungal growth incubated for 48 hrs; assay type: functional
[3] = system: Candida albicans; assay: Antifungal activity against Candida albicans SP3902 assessed as inhibition of fungal growth incubated for 48 hrs; assay type: functional
[4] = system: Candida albicans; assay: Antifungal activity against Candida albicans SP3903 assessed as inhibition of fungal growth incubated for 48 hrs; assay type: functional
[5] = system: Candida albicans; assay: Antifungal activity against Fluconazole-resistant Candida albicans 58288 assessed as inhibition of fungal growth incubated for 48 hrs; assay type: functional
[6] = system: Candida albicans; assay: Antifungal activity against Candida albicans SP3876 assessed as inhibition of fungal growth incubated for 48 hrs; assay type: functional
[7] = system: Candida albicans; assay: Antifungal activity against Candida albicans SP3931 assessed as inhibition of fungal growth incubated for 48 hrs; assay type: functional
[8] = system: Candida albicans; assay: Antifungal activity against Candida albicans 14936 assessed as inhibition of fungal growth incubated for 48 hrs; assay type: functional
[9] = system: Candida albicans; assay: Antifungal activity against Candida albicans 17546 assessed as inhibition of fungal growth incubated for 48 hrs; assay type: functional
[10] = system: Candida albicans; assay: Antifungal activity against Fluconazole-resistant Candida albicans 56214 assessed as inhibition of fungal growth incubated for 48 hrs; assay type: functional
[11] = system: Candida albicans; assay: Antifungal activity against Candida albicans 56452 assessed as inhibition of fungal growth incubated for 48 hrs; assay type: functional
[12] = system: Candida parapsilosis; assay: Antifungal activity against Candida parapsilosis CGMCC 2.3989 assessed as inhibition of fungal growth incubated for 48 hrs; assay type: functional; conditions: Lodderomyces parapsilosis
[13] = Hemolytic activity in human red blood cells assessed as hemolysis incubated for 1 hr; assay type: toxicity, cell-based, Erythrocyte
[14] = Hemolytic activity in human red blood cells assessed as hemolysis rate at 512 uM incubated for 1 hr relative to control; assay type: toxicity, cell-based, Erythrocyte; conditions: read-out: Activity
[15] = system: Candida albicans; assay: Antifungal activity against Candida albicans CGMCC 2.2086 assessed as inhibition of fungal growth incubated for 48 hrs in presence of NaCl; assay type: functional
[16] = system: Candida albicans; assay: Antifungal activity against Candida albicans CGMCC 2.2086 assessed as inhibition of fungal growth incubated for 48 hrs in presence of KCl; assay type: functional
[17] = system: Candida albicans; assay: Antifungal activity against Candida albicans CGMCC 2.2086 assessed as inhibition of fungal growth incubated for 48 hrs in presence of NH4Cl; assay type: functional
[18] = system: Candida albicans; assay: Antifungal activity against Candida albicans CGMCC 2.2086 assessed as inhibition of fungal growth incubated for 48 hrs in presence of MgCl2; assay type: functional
[19] = system: Candida albicans; assay: Antifungal activity against Candida albicans CGMCC 2.2086 assessed as inhibition of fungal growth incubated for 48 hrs in presence of ZnCl2; assay type: functional
[20] = system: Candida albicans; assay: Antifungal activity against Candida albicans CGMCC 2.2086 assessed as inhibition of fungal growth incubated for 48 hrs in presence of FeCl3; assay type: functional
[21] = system: Candida albicans; assay: Antifungal activity against Candida albicans CGMCC 2.2086 assessed as inhibition of fungal growth incubated for 48 hrs in presence of CaCl2; assay type: functional
[22] = Stability of the compound in NaCl assessed as change in secondary structure by CD spectra analysis; assay type: physicochemical
[23] = Stability of the compound in KCl assessed as change in secondary structure by CD spectra analysis; assay type: physicochemical
[24] = Stability of the compound in NH4Cl assessed as change in secondary structure by CD spectra analysis; assay type: physicochemical
[25] = Stability of the compound in MgCl2 assessed as change in secondary structure by CD spectra analysis; assay type: physicochemical
[26] = Stability of the compound in ZnCl2 assessed as change in secondary structure by CD spectra analysis; assay type: physicochemical
[27] = Stability of the compound in FeCl3 assessed as change in secondary structure by CD spectra analysis; assay type: physicochemical
[28] = Stability of the compound in CaCl2 assessed as change in secondary structure by CD spectra analysis; assay type: physicochemical
[29] = Cytotoxicity against porcine IPEC-J2 cells assessed as reduction in cell viability at 128 uM incubated for 4 hrs by MTT assay; assay type: toxicity, cell-based, Sus scrofa; conditions: pig, ipec-j2, 4 h
[30] = system: HEK293; assay: Cytotoxicity against HEK293 cells assessed as reduction in cell viability at 128 uM incubated for 4 hrs by MTT assay; assay type: toxicity, cell-based; conditions: human, hek293, 4 h

| SMILES | MIC95 [1] | MIC95 [2] | MIC95 [3] | MIC95 [4] | MIC95 [5] | MIC95 [6] | MIC95 [7] | MIC95 [8] | MIC95 [9] | MIC95 [10] | MIC95 [11] | MIC95 [12] | HC50 at 1 h [13] | hemolysis at 1 h, 512 µM [14] | MIC95 [15] | MIC95 [16] | MIC95 [17] | MIC95 [18] | MIC95 [19] | MIC95 [20] | further results |
| --- | --- | --- | --- | --- | --- | --- | --- | --- | --- | --- | --- | --- | --- | --- | --- | --- | --- | --- | --- | --- | --- |
| CC[C@H](C)[C@H](N)C(=O)N[C@H](C(=O)N[C@H](CCCNC(=N)N)C(=O)N[C@@H](CCCNC(=N)N)C(=O)N[C@@H](Cc1c[nH]cn1)C(=O)N[C@H](C(=O)N[C@H](C(=O)N[C@H](C(=O)N[C@H](C(=O)N[C@H](CCCNC(=N)N)C(=O)N[C@@H](CCCNC(=N)N)C(=O)N[C@@H](Cc1c[nH]cn1)C(=O)N[C@H](C(=O)N[C@H](C(N)=O)[C@@H](C)CC)[C@@H](C)CC)[C@@H](C)CC)[C@@H](C)CC)[C@@H](C)CC)[C@@H](C)CC)[C@@H](C)CC | 16 µM (≈ 29.1 µg/mL) | 2 µM (≈ 3.64 µg/mL) | 8 µM (≈ 14.6 µg/mL) | 64 µM (≈ 117 µg/mL) | 32 µM (≈ 58.3 µg/mL) | 32 µM (≈ 58.3 µg/mL) | 16 µM (≈ 29.1 µg/mL) | 32 µM (≈ 58.3 µg/mL) | 64 µM (≈ 117 µg/mL) | 64 µM (≈ 117 µg/mL) | 32 µM (≈ 58.3 µg/mL) | 32 µM (≈ 58.3 µg/mL) | > 512 µM | 1.84% | > 64 µM | 32 µM | 32 µM | 64 µM | 64 µM | 64 µM | MIC95 [21]: > 64 µM; Stability [22]: Unstable; Stability [23]: Stable; Stability [24]: Stable; Stability [25]: Stable; Stability [26]: Stable; Stability [27]: Stable; Stability [28]: Stable |
| CC(C)[C@H](N)C(=O)N[C@H](C(=O)N[C@H](CCCNC(=N)N)C(=O)N[C@@H](CCCNC(=N)N)C(=O)N[C@@H](Cc1c[nH]cn1)C(=O)N[C@H](C(=O)N[C@H](C(=O)N[C@H](C(=O)N[C@H](C(=O)N[C@H](CCCNC(=N)N)C(=O)N[C@@H](CCCNC(=N)N)C(=O)N[C@@H](Cc1c[nH]cn1)C(=O)N[C@H](C(=O)N[C@H](C(=O)N[C@H](C(=O)N[C@H](C(=O)N[C@H](CCCNC(=N)N)C(=O)N[C@@H](CCCNC(=N)N)C(=O)N[C@@H](Cc1c[nH]cn1)C(=O)N[C@H](C(=O)N[C@H](C(=O)N[C@H](C(=O)N[C@H](C(=O)N[C@H](CCCNC(=N)N)C(=O)N[C@@H](CCCNC(=N)N)C(=O)N[C@@H](Cc1c[nH]cn1)C(=O)N[C@H](C(=O)N[C@H](C(N)=O)C(C)C)C(C)C)C(C)C)C(C)C)C(C)C)C(C)C)C(C)C)C(C)C)C(C)C)C(C)C)C(C)C)C(C)C)C(C)C)C(C)C)C(C)C | 8 µM (≈ 27.2 µg/mL) | 4 µM (≈ 13.6 µg/mL) | 8 µM (≈ 27.2 µg/mL) | 4 µM (≈ 13.6 µg/mL) | 8 µM (≈ 27.2 µg/mL) | 8 µM (≈ 27.2 µg/mL) | 8 µM (≈ 27.2 µg/mL) | 8 µM (≈ 27.2 µg/mL) | 8 µM (≈ 27.2 µg/mL) | 4 µM (≈ 13.6 µg/mL) | 8 µM (≈ 27.2 µg/mL) | 4 µM (≈ 13.6 µg/mL) | > 512 µM | 21.7% | 64 µM | 16 µM | 8 µM | 16 µM | 32 µM | 16 µM | Activity [29]: Toxic; Activity [30]: Toxic; MIC95 [21]: 32 µM; Stability [22]: Unstable; Stability [23]: Stable; Stability [24]: Stable; Stability [25]: Stable; Stability [26]: Stable; Stability [27]: Stable; Stability [28]: Stable |
| CC(=O)N1CCN(c2ccc(OCC3COC(Cn4ccnc4)(c4ccc(Cl)cc4Cl)O3)cc2)CC1 (stereo not given) [KETOCONAZOLE] | 2 µM (≈ 1.06 µg/mL) | 2 µM (≈ 1.06 µg/mL) | 2 µM (≈ 1.06 µg/mL) | 4 µM (≈ 2.13 µg/mL) | > 64 µM | 16 µM (≈ 8.5 µg/mL) | 4 µM (≈ 2.13 µg/mL) | 4 µM (≈ 2.13 µg/mL) | 2 µM (≈ 1.06 µg/mL) | > 64 µM | 1 µM (≈ 0.531 µg/mL) | 4 µM (≈ 2.13 µg/mL) |  |  |  |  |  |  |  |  |  |
